Reference: patent US20080319001A1, “Cancer Treatment Using Specific 3,6,9-Substituted Acridines” (priority 2005, published 2008)
Like-named read-outs stand apart in the source and are kept apart here.

Tests used:
[1] = system: telomerase (extracts from A2780 human ovarian carcinoma cells); assay: Modified telomeric repeat amplification protocol (TRAP) assay, cell-free; type: biochemical
Experimental: The ability of compounds to inhibit telomerase in a cell-free assay was assessed with a modified TRAP assay using extracts from exponentially growing A2780 human ovarian carcinoma cells. The TRAP assay was performed in 2 steps: • (a) telomerase-mediated extension of the forward primer (TS: 5′-AATCCGTCGAGCAGAGTT, Oswel Ltd., Southampton, UK) contained in a 40 μL reaction mix comprising TRAP buffer (20 mM Tris-HCl (pH 8.3), 68 mM KCl, 1.5 mM MgCl2, 1 mM EGTA, 0.05% v/v Tween 20), 0.05 μg bovine serum albumin, 50 μM of each deoxynucleotide triphosphate, 0.1 μg TS primer, and 3 μCi of [α-P]dCTP (Amersham plc, UK)Protein (40 ng or 20 ng) was then incubated with the reaction mix and agent (acid addition and quaternary dimethiodide salts) at final concentrations of up to 50 μM for 20 min at 25° C. A lysis buffer (no protein) control, heat-inactivated protein control, and 50% protein (20 ng or 10 ng) control were included in each assay; and • (b) while heating at 80° C. in a PCR block of a thermal cycler (Hybaid, UK) for 5 min to inactivate telomerase activity, 0.1 μg of reverse CX primer (3′-[…]-5′) and 2 Units of Taq DNA polymerase (“red hot”, Advanced Biotechnologies) were added. A 3-step PCR was then performed: 94° C. for 30 s, 50° C. for 30 s, and 72° C. for 1 min for 31 cycles. Telomerase-extended PCR products in the presence or absence of compounds were then determined either by electrophoretic separation using 8% w/w acrylamide denaturing gels and analysis by phosphorimaging or autoradiography, or by harvesting on Whatman filters (25 mm glass microfibre) and analysis by liquid scintillation counting.

[2] = Cytotoxicity / growth inhibition, DU145; type: cell-based; conditions: human, DU145 cells; read-out: Cytotoxic IC50 vs. DU145
[3] = Cytotoxicity / growth inhibition, MCF7; type: cell-based; conditions: human, MCF7 cells; read-out: Cytotoxic IC50 vs. MCF7
[4] = Cytotoxicity / growth inhibition, A549; type: cell-based; conditions: human, A549 cells; read-out: Cytotoxic IC50 vs. A549
Metabolic stability, HLM = type: in vitro ADME, human
[5] = LogP/D measurement (octanol/ISA water titration); type: physicochemical; conditions: for logD / logP: octanol/ISA (ionic strength adjusted) water; for logP / Measured LogPion: octanol/ISA water; for logP: read-out: Measured LogP
Experimental: The LogP values were measured by titration of solutions of the compound in Octanol/ISA (ionic strength adjusted) water mixtures on a Sirius GipKa instrument. Titrations in different ratios of Octanol to water enabled the calculation of the Log Pion values and therefore the LogD profile. Prediction of LogP values were made using ACD v8.07 and Syracuse KNOWWIN v1.67 software.

HPLC solution stability = type: physicochemical
Experimental: Due to the generally low solubility of these compounds in 0.9% NaCl and 5% dextrose it was decided to mix these media with 50% Iso-propanol (IPA) to maintain full dissolution of the compound during these studies.
The remaining 5 mg/ml DMSO stock solution from the pKa determination was used for the stability studies. This solution had been stored in the fridge for several days before these stability studies. A solution with a concentration of 0.1 mg/ml was prepared for each experiment (50 fold dilution of DMSO stock). Stability trials were carried out at 4° C. (fridge) and 25° C. (on top of shaker at 25° C.) and at time points of 0, 1 and 7 days. In the case of 100% IPA data was collected at 0, 1 and 14 days after storage at 25° C. The HPLC purity method discussed in section 4.5 below was used for purity analysis. The largest and second largest peaks were added together due to separation of rotamers as discussed above.

[6] = Log P (summary of biological and physicochemical properties, Table 4)
human telomerase = conditions: Read et al. 2001; Harrison et al. 2003; Schultes et al. 2004; cited from earlier work
tumour cell line = conditions: Incles et al, 2004; cited from earlier work
[7] = Table 3, unit inferred, read-out: TRAP EC50
[8] = Table 4, read-out: Telomerase EC50
[9] = pH 6, read-out: Measured LogD pH 6
[10] = pH 6.5, read-out: Measured LogD pH 6.5
[11] = pH 7.4, read-out: Measured LogD pH 7.4
[12] = 0.9% NaCl mixed with 50% IPA, 0 days
[13] = 0.9% NaCl mixed with 50% IPA, 1 day, 4 ° C.
[14] = 0.9% NaCl mixed with 50% IPA, 1 day, 25 ° C.
[15] = 0.9% NaCl mixed with 50% IPA, 7 days, 4 ° C.
[16] = 0.9% NaCl mixed with 50% IPA, 7 days, 25 ° C.
[17] = 5% Dextrose mixed with 50% IPA, 0 days
[18] = 5% Dextrose mixed with 50% IPA, 1 day, 4 ° C.
[19] = 5% Dextrose mixed with 50% IPA, 1 day, 25 ° C.
[20] = 5% Dextrose mixed with 50% IPA, 7 days, 4 ° C.
[21] = 5% Dextrose mixed with 50% IPA, 7 days, 25 ° C.

CN(C)c1ccc(Nc2c3ccc(NC(=O)CCN4CCCC4)cc3nc3cc(NC(=O)CCN4CCCC4)ccc23)cc1 [BSG01]
EC50 [1, 7]: 115 nM
EC50 [1, 8]: 115 nM
IC50 at 96 h [2]: 2300 nM
IC50 at 96 h [3]: 2530 nM
IC50 at 96 h [4]: 2420 nM
HLM (t = 45) (Metabolic stability, HLM): 6.1
HLM (t = 90) (Metabolic stability, HLM): 11.2
logD [5, 9]: -2.56
logD [5, 10]: -1.47
logD [5, 11]: 0.74
logP [5]: 5.02
Measured LogPion [5]: 2.62
Combined rotamer purity (HPLC solution stability; [12]): 95.4
Purity larger rotamer peak (HPLC solution stability; [12]): 89.8
Purity smaller rotamer peak (HPLC solution stability; [12]): 5.7
Combined rotamer purity (HPLC solution stability; [13]): 95.7
Purity larger rotamer peak (HPLC solution stability; [13]): 86.8
Purity smaller rotamer peak (HPLC solution stability; [13]): 8.9
Combined rotamer purity (HPLC solution stability; [14]): 93.5
Purity larger rotamer peak (HPLC solution stability; [14]): 82.3
Purity smaller rotamer peak (HPLC solution stability; [14]): 11.2
Combined rotamer purity (HPLC solution stability; [15]): 66.8
Purity larger rotamer peak (HPLC solution stability; [15]): 47.5
Purity smaller rotamer peak (HPLC solution stability; [15]): 19.4
Combined rotamer purity (HPLC solution stability; [16]): 47.6
Purity larger rotamer peak (HPLC solution stability; [16]): 35.1
Purity smaller rotamer peak (HPLC solution stability; [16]): 12.5
Combined rotamer purity (HPLC solution stability; [17]): 94.8
Purity larger rotamer peak (HPLC solution stability; [17]): 88.7
Purity smaller rotamer peak (HPLC solution stability; [17]): 6.1
Combined rotamer purity (HPLC solution stability; [18]): 94.5
Purity larger rotamer peak (HPLC solution stability; [18]): 84.5
Purity smaller rotamer peak (HPLC solution stability; [18]): 10.00
Combined rotamer purity (HPLC solution stability; [19]): 94.5
Purity larger rotamer peak (HPLC solution stability; [19]): 79.5
Purity smaller rotamer peak (HPLC solution stability; [19]): 15.0
Combined rotamer purity (HPLC solution stability; [20]): 79.3
Purity larger rotamer peak (HPLC solution stability; [20]): 48.4
Purity smaller rotamer peak (HPLC solution stability; [20]): 30.9
Combined rotamer purity (HPLC solution stability; [21]): 68.0
Purity larger rotamer peak (HPLC solution stability; [21]): 35.2%
Purity smaller rotamer peak (HPLC solution stability; [21]): 32.8
Combined rotamer purity (HPLC solution stability; 100% IPA, 0 days): 91.9
Purity larger rotamer peak (HPLC solution stability; 100% IPA, 0 days): 86.4
Purity smaller rotamer peak (HPLC solution stability; 100% IPA, 0 days): 5.5
Combined rotamer purity (HPLC solution stability; 100% IPA, 1 day, 25 ° C.): 93.2
Purity larger rotamer peak (HPLC solution stability; 100% IPA, 1 day, 25 ° C.): 87.2
Purity smaller rotamer peak (HPLC solution stability; 100% IPA, 1 day, 25 ° C.): 6.0
Combined rotamer purity (HPLC solution stability; 100% IPA, 14 days, 25 ° C.): 94.0
Purity larger rotamer peak (HPLC solution stability; 100% IPA, 14 days, 25 ° C.): 82.8
Purity smaller rotamer peak (HPLC solution stability; 100% IPA, 14 days, 25 ° C.): 11.2
logP [6]: 1.4
in vitro inhibitory activity against human telomerase (human telomerase): potent in vitro inhibitory activity
end-to-end fusions in chromosomes (tumour cell line): cause end-to-end fusions in chromosomes

O=C(CCN1CCCC1)Nc1ccc2c(NCc3ccc(F)c(F)c3)c3ccc(NC(=O)CCN4CCCC4)cc3nc2c1 [BSG17, N-(9-(3,4-Difluoro-benzylamino)-6-(3-pyrolidin-1-yl-propionamide)-acridin-3-yl)-3-pyrrolidin-1-yl-propionamide]
EC50 [1, 7]: 32 nM
EC50 [1, 8]: 162 nM
IC50 at 96 h [2]: 9750 nM
IC50 at 96 h [3]: 2260 nM
IC50 at 96 h [4]: 2120 nM
HLM (t = 45) (Metabolic stability, HLM): 3.1
HLM (t = 90) (Metabolic stability, HLM): 12.4
logD [5, 9]: -0.15
logD [5, 10]: 0.38
logD [5, 11]: 1.58
logP [5]: 5.54
Measured LogPion [5]: 3.75
Combined rotamer purity (HPLC solution stability; [12]): 89.4
Purity larger rotamer peak (HPLC solution stability; [12]): 61.4
Purity smaller rotamer peak (HPLC solution stability; [12]): 28.0
Combined rotamer purity (HPLC solution stability; [13]): 85.1
Purity larger rotamer peak (HPLC solution stability; [13]): 58.4
Purity smaller rotamer peak (HPLC solution stability; [13]): 26.8
Combined rotamer purity (HPLC solution stability; [14]): 82.4
Purity larger rotamer peak (HPLC solution stability; [14]): 55.9
Purity smaller rotamer peak (HPLC solution stability; [14]): 26.5
Combined rotamer purity (HPLC solution stability; [15]): 61.0
Purity larger rotamer peak (HPLC solution stability; [15]): 39.2
Purity smaller rotamer peak (HPLC solution stability; [15]): 21.8
Combined rotamer purity (HPLC solution stability; [16]): 54.5
Purity larger rotamer peak (HPLC solution stability; [16]): 33.8
Purity smaller rotamer peak (HPLC solution stability; [16]): 20.8
Combined rotamer purity (HPLC solution stability; [17]): 88.5
Purity larger rotamer peak (HPLC solution stability; [17]): 60.7
Purity smaller rotamer peak (HPLC solution stability; [17]): 27.8
Combined rotamer purity (HPLC solution stability; [18]): 83.8
Purity larger rotamer peak (HPLC solution stability; [18]): 56.9
Purity smaller rotamer peak (HPLC solution stability; [18]): 26.9
Combined rotamer purity (HPLC solution stability; [19]): 78.0
Purity larger rotamer peak (HPLC solution stability; [19]): 52.4
Purity smaller rotamer peak (HPLC solution stability; [19]): 25.6
Combined rotamer purity (HPLC solution stability; [20]): 53.2
Purity larger rotamer peak (HPLC solution stability; [20]): 32.5
Purity smaller rotamer peak (HPLC solution stability; [20]): 20.7
Combined rotamer purity (HPLC solution stability; [21]): 39.4
Purity larger rotamer peak (HPLC solution stability; [21]): 22.3
Purity smaller rotamer peak (HPLC solution stability; [21]): 17.1
Combined rotamer purity (HPLC solution stability; 100% IPA, 0 days): 84.6
Purity larger rotamer peak (HPLC solution stability; 100% IPA, 0 days): 58.8
Purity smaller rotamer peak (HPLC solution stability; 100% IPA, 0 days): 25.8
Combined rotamer purity (HPLC solution stability; 100% IPA, 1 day, 25 ° C.): 81.5
Purity larger rotamer peak (HPLC solution stability; 100% IPA, 1 day, 25 ° C.): 56.6
Purity smaller rotamer peak (HPLC solution stability; 100% IPA, 1 day, 25 ° C.): 25.0
Combined rotamer purity (HPLC solution stability; 100% IPA, 14 days, 25 ° C.): 77.2
Purity larger rotamer peak (HPLC solution stability; 100% IPA, 14 days, 25 ° C.): 52.7
Purity smaller rotamer peak (HPLC solution stability; 100% IPA, 14 days, 25 ° C.): 24.5
logP [6]: 1.59
